Measured values as given in patent US12458605B2, “Lipid nanoparticle” (National University Corporation Hokkaido University, priority 2020, dated 2025).
“And” between values parts separate entries of the source, which are not always exact repeats. Identical values can stand only once.

Columns and labels:
[1] = Average particle size and PDI by dynamic light scattering (Zetasizer Nano ZS); type: physicochemical
Method: (§1) The average particle size (number-average value) and PDI in PBS(−) and zeta potential in 10 mM HEPES buffer solution (pH 7.4) of lipid nanoparticles were measured using “Zetasizer Nano ZS ZEN3600”, an analyzer utilizing dynamic light scattering (manufactured by Malvern).

[2] = Zeta potential in 10 mM HEPES buffer (pH 7.4); type: physicochemical
Method: as §1

[3] = pKa of lipid nanoparticles by TNS (section II); type: physicochemical; details: F7siRNA-loaded LNP; compared with LNP of straight-chain CL4H6 or CL15H6 (FIG. 1)
Method: The pKa of lipid nanoparticles was measured using p-toluidino-2-naphthalenesulfonic acid (TNS). First, TNS (final concentration: 0.75 μM) and lipid nanoparticles (final concentration: […]) were mixed in buffer solution adjusted to each pH. The fluorescence intensity of the prepared mixture was measured with a microplate reader. The highest and lowest values among the measured values were taken as 100% and 0% charge rates respectively, and the pH indicating 50% charge rate was calculated as pKa.

[4] = Nucleic acid encapsulation rate by Ribogreen (section II); type: physicochemical; details: for % mRNA encapsulation: NlucmRNA-loaded LNP, 60:10:40:1; for % pDNA encapsulation: pFluc-loaded LNP
Method: The encapsulation rates of siRNA, mRNA, and pDNA of lipid nanoparticles were measured using Ribogreen (manufactured by life technologies).

[5] = system: F7; experiment: In vivo F7 knockdown, plasma F7 enzyme activity, ICR mice; details: i.v. 0.003-0.1 mg siRNA/kg, plasma at 24 hours, compared with LNP of CL4H6 or CL15H6 (FIG. 2)
Method: Then, each prepared F7siRNA-loaded lipid nanoparticles were administered to ICR mice (4 weeks old, female) and in vivo F7 knockdown activity was examined.
Specifically, each F7siRNA-loaded lipid nanoparticles were intravenously administered to ICR mice at 0.003-0.1 mg siRNA/kg, and plasma F7 enzyme activity at 24 hours later was measured. Relative plasma F7 enzyme activity (%) of mice administered each F7siRNA-loaded lipid nanoparticles was calculated using plasma F7 enzyme activity of untreated mice as 100%. FIG. 2(B) is the results of intravenous administration of each F7siRNA-loaded lipid nanoparticle at 0.1 mg siRNA/kg.

[6] = Average particle size (ζ-Average) and PDI by dynamic light scattering (Zetasizer Nano ZSP); type: physicochemical
Summary of the method: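 Lipid nanoparticles dispersed in PBS(−) were sized by dynamic light scattering, giving the ζ-Average diameter and polydispersity index (PDI).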

[7] = siRNA/mRNA encapsulation rate by Ribogreen reagent (section IV); type: physicochemical; details: for % siRNA encapsulation: F7siRNA-loaded LNP, 50:10:38.5:1.5, N/P ratio 6; for % mRNA encapsulation: FlucmRNA-loaded LNP, 50:10:38.5:1.5
Summary of the method: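 LNPs diluted in TE buffer to 8 μg/mL nucleic acid for surface RNA, or to 1.2 μg/mL with 1% Triton X-100 for total RNA. RiboGreen fluorescence (ex 485/em 528 nm) quantified against a Triton-containing standard curve (0-2.5 μg/mL). Encapsulation % = (total − surface)/total × 100.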

[8] = system: F7; experiment: In vivo F7 knockdown, plasma F7 enzyme activity (BIOPHEN FVII), Balb/c mice; details: i.v. 0.025 mg siRNA/kg, plasma at 24 hours; for F7 enzyme activity (%): untreated mice as 100%; for F7 enzyme activity (Ratio using MC3 as 1): relative plasma F7 activity of MC3 LNP as 1
Summary of the method: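 Female Balb/c mice, 5 weeks old, received F7 siRNA lipid nanoparticles i.v. at 0.025 mg siRNA/kg; plasma F7 activity measured chromogenically (BIOPHEN FVII) 24 h later. Values are % of untreated mice, also expressed as a ratio to MC3-containing nanoparticles set at 1.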

[9] = Storage stability of FlucmRNA-loaded LNP at −80, 5, 25 and 40° C.; type: physicochemical; details: for period for which quality remained good, −80° C.: maximum storage period 1 week
Summary of the method: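 FlucmRNA-loaded LNPs held at −80, 5, 25 or 40° C; at each time point size, PDI and encapsulation measured. Quality deemed maintained while size stays within ±20 nm of preparation day, PDI ≤0.2 and encapsulation ≥80%; value is the period meeting all three.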

[10] = system: liver; experiment: In vivo Fluc activity of FlucmRNA-loaded LNP by in vivo imaging, liver; details: Balb/c mice, FlucmRNA-loaded LNP i.v. 0.1 mg mRNA/kg, 6 hours
Summary of the method: (§2)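 Female Balb/c mice, 7 weeks old, received LNP i.v. at 0.1 mg mRNA/kg. At 6 h, luciferin was given via tail vein at 1.5 mg per mouse, and liver and spleen luminescence was imaged as Avg Radiance [p/s/cm2/sr] near 560 nm.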

[11] = system: spleen; experiment: In vivo Fluc activity of FlucmRNA-loaded LNP by in vivo imaging, spleen; details: Balb/c mice, FlucmRNA-loaded LNP i.v. 0.1 mg mRNA/kg, 6 hours
Summary of the method: as §2

[12] = system: factor VII (F7); details: mouse liver; lipid as LNP carrier of siRNA; cited from earlier work
[13] = NlucmRNA-loaded LNP, 60:10:40:1
[14] = NlucmRNA-loaded LNP, lipid:DSPC:cholesterol:PEG-DMG 60:10:40:1
[15] = pFluc-loaded LNP, 50:10:40:1.5, N/P ratio 6
[16] = pFluc-loaded LNP, 50:10:40:1.5, N/P ratio 9
[17] = F7siRNA-loaded LNP, 50:10:38.5:1.5, N/P ratio 6
[18] = FlucmRNA-loaded LNP, lipid:DSPC:cholesterol:DMG-PEG2K 50:10:38.5:1.5
[19] = FlucmRNA-loaded LNP, 50:10:38.5:1.5

SMILES | PdI [1, 13] | ζ-Average (nm) [1, 14] [nm] | ζ-Average (nm) [1, 15] [nm] | ζ-Average (nm) [1, 16] [nm] | PdI ([1]; pFluc-loaded LNP, N/P ratio 6) | PdI ([1]; pFluc-loaded LNP, N/P ratio 9) | ζ-potential (mV) [2, 13] [mV] | ζ-potential (mV) ([2]; pFluc-loaded LNP, N/P ratio 6) | ζ-potential (mV) ([2]; pFluc-loaded LNP, N/P ratio 9) | % mRNA encapsulation [4] [%] | % pDNA encapsulation ([4]; N/P ratio 6) [%] | % pDNA encapsulation ([4]; N/P ratio 9) | PDI [6, 17] | ζ-Average (nm) [6, 17] | ζ-Average (nm) [6, 18] | % siRNA encapsulation [7] | % mRNA encapsulation [7] | F7 enzyme activity (%) [8] [%] | PDI [6, 19] | ED50 in F7 knockdown [12] [mg siRNA/kg] | further results
CCCCCCCCC(CCCCCC)C(=O)OCCCCCCC(O)(CCCCCCOC(=O)C(CCCCCC)CCCCCCCC)CCCCN(CCC)CCC (stereo not shown) [CL4F6, 7-(4-(dipropylamino)butyl)-7-hydroxytridecane-1,13-diyl bis(2-hexyldecanoate)] | 0.157 | 127.2 | 79.91 | 91.3 ± 11.2 | 0.08 | 0.19 ± 0.03 | −3.72 | −5.17 | −1.7 ± 0.5 | 90 | 97.1 | 94.8 ± 3.3% | 0.014 | 92.27 nm | 82.66 nm and 88.07 nm | 99.9% | 99.6% and 99.4% | 6.8 |  |  | pKa of lipid nanoparticle, compared [3]: lower pKa; in vivo F7 knockdown activity, compared [5]: equivalent in vivo F7 knockdown activity; period for which quality remained good, −80° C. [9]: 1 week; period for which quality remained good, 5° C. ([9]; maximum storage period 5 weeks): 5 weeks; period for which quality remained good, 25° C. ([9]; maximum storage period 5 weeks): 5 weeks; period for which quality remained good, 40° C. (weeks) ([9]; maximum storage period 5 weeks): 5 weeks
CCCCCCCC/C=C\CCCCCCCC(=O)OCCCCCCC(O)(CCCCCCOC(=O)CCCCCCC/C=C\CCCCCCCC)CCCCOC(=O)C1CCN(C)CC1 [CL15H6, 7-hydroxy-7-(4-((1-methylpiperidine-4-carbonyl)oxy)butyl)tridecane-1,13-diyl dioleate, reference compound] | 0.495 | 94.34 | 121.7 | 149.9 ± 9.8 | 0.08 | 0.11 ± 0.01 | 0.123 | 0.367 | 0.9 ± 0.9 | 90.5 | 72.4 | 81.9 ± 3^ % | 0.142 | 123.50 nm | 180.90 nm | 100.2% | 83.8% |  | 0.238 |  | Fluc Activity in liver [10]: 1.17E+05 Avg Radiance [p/s/cm2/sr]; Fluc Activity in spleen [11]: 6.17E+05 Avg Radiance [p/s/cm2/sr]; F7 enzyme activity (Ratio using MC3 as 1) [8]: 1.99; quality at production (storage stability criteria) ([9]; criteria: PDI 0.2 or less, encapsulation 80% or more): Does not meet the criteria for “good” at production
CC(CCC(C(=O)OCCCCCCC(O)(CCCCCCOC(=O)C(CCC(C)CC(C)(C)C)C(C)CC(C)(C)C)CCCCOC(=O)C1CCN(C)CC1)C(C)CC(C)(C)C)CC(C)(C)C (stereo not shown) [CL15G6] | 0.201 | 71.65 | 86.39 | 100.9 ± 10.7 | 0.03 | 0.12 ± 0.08 | 0.419 | −5.84 | −1.9 ± 0.6 | 91.8 | 94.7 | 91.1 ± 2.1% | 0.021 | 97.73 nm | 102.40 nm | 100.7% | 100.24% |  | 0.012 |  | pKa of lipid nanoparticle, compared [3]: lower pKa; in vivo F7 knockdown activity, compared [5]: equivalent in vivo F7 knockdown activity; Fluc Activity in liver [10]: 6.52E+06 Avg Radiance [p/s/cm2/sr]; Fluc Activity in spleen [11]: 2.77E+06 Avg Radiance [p/s/cm2/sr]; F7 enzyme activity (Ratio using MC3 as 1) [8]: 2.69
CCCCCCCCCCC(O)CN(CCCCC1NC(=O)C(CCCCN(CC(O)CCCCCCCCCC)CC(O)CCCCCCCCCC)NC1=O)CC(O)CCCCCCCCCC (stereo not shown) [cKK-E12] |  |  |  |  |  |  |  |  |  |  |  |  |  |  |  |  |  |  |  | 0.002 | 
CCCCC/C=C\C/C=C\CCCCCCCCC(CCCCCCCC/C=C\C/C=C\CCCCC)OC(=O)CCCN(C)C [MC3, D-Lin-MC3-DMA, reference compound] |  |  |  |  |  |  |  |  |  |  |  |  |  | 81.68 nm and 85.73 nm and 87.69 nm | 68.60 nm and 71.49 nm | 99.1% and 97.6% | 99.0% and 99.04% | 2.5 | 0.042 and 0.072 | 0.005 | F7 enzyme activity (Ratio using MC3 as 1) [8]: 1; period for which quality remained good, −80° C. [9]: 0 week; period for which quality remained good, 5° C. ([9]; maximum storage period 5 weeks): 0 weeks; period for which quality remained good, 25° C. ([9]; maximum storage period 5 weeks): 1 weeks; period for which quality remained good, 40° C. (weeks) ([9]; maximum storage period 5 weeks): 0 weeks
CCCCC/C=C\C/C=C\CCCCCCCCOC1(OCCCCCCCC/C=C\C/C=C\CCCCC)CCN(C)CC1 [YSK05] |  |  |  |  |  |  |  |  |  |  |  |  |  |  |  |  |  |  |  | 0.06 | 
CCCCCCCC/C=C\CCCCCCCC(=O)OCCCCCCC(O)(CCCCCCOC(=O)CCCCCCC/C=C\CCCCCCCC)CCCCN(CCC)CCC [CL4H6, 7-(4-(dipropylamino)butyl)-7-hydroxytridecane-1,13-diyl dioleate, reference compound] | 0.139 | 113.4 | 105.6 | 113.9 ± 4.2 | 0.14 | 0.2 ± 0.03 | −1.23 | −0.57 | −0.4 ± 0.4 | 77.6 | 41.5 | 70 ± 5.2% | 0.102 | 68.86 nm | 71.28 nm | 96.1% | 80.1% | 47.2 | 0.072 |  | Fluc Activity in liver [10]: 1.06E+07 Avg Radiance [p/s/cm2/sr]; Fluc Activity in spleen [11]: 2.10E+06 Avg Radiance [p/s/cm2/sr]; period for which quality remained good, −80° C. [9]: 0 week; period for which quality remained good, 5° C. ([9]; maximum storage period 5 weeks): 0 week weeks; period for which quality remained good, 25° C. ([9]; maximum storage period 5 weeks): 1 week weeks; period for which quality remained good, 40° C. (days) ([9]; maximum storage period 5 weeks): 0 day days
CCCCCC/C=C\COC(=O)CCCCCCCC(CCCCCCCC(=O)OC/C=C\CCCCCC)OC(=O)CCCN(C)C [L319] |  |  |  |  |  |  |  |  |  |  |  |  |  |  |  |  |  |  |  | 0.01 | 
